The source of these data is patent US20250346613A1, “BORIC ACID PROTEASOME INHIBITOR AND USE THEREOF” (ARTIVILA BIOPHARMA, priority 2022, published 2025).

Assay [1] addresses T1, β5c subunit of the 20S proteasome (Homo sapiens, UniProt P20618+P28074).
T1 construct: The proteasome tested in the present disclosure was derived from Raji cells; endogenous in cells; host or cells: Raji cells
Nature of the assay: Proteasome inhibitory activity, β5c subunit (Raji cells treated with compound, lysed, Suc-LLVY-AMC substrate). Format: cell-based. To be noted: proteasome from Raji cells incubated with compound 4 h. In outline:
(§1)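 Raji cells were treated for 4 h at 37 °C with compound (from 1 μM, 3-fold, 8 concentrations), then lysed. Lysate activity was read 10 min at 37 °C with Ac-ANW-AMC (β5i) or Suc-LLVY-AMC (β5c) at 345/445 nm. Percent inhibition was relative to DMSO-treated lysate.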

Assay [2] deals with T2, β5i subunit of the 20S proteasome (Homo sapiens, UniProt P20618+P28062).
T2 construct: The proteasome tested in the present disclosure was derived from Raji cells; endogenous in cells; host or cells: Raji cells
Nature of the assay: Proteasome inhibitory activity, β5i subunit (Raji cells treated with compound, lysed, Ac-ANW-AMC substrate). Format: cell-based. The following applies: proteasome from Raji cells incubated with compound 4 h. In outline:
as §1

The IC50 is the concentration that gives 50% inhibition.

In the case of `Cc1ccc(C[C@H](NC(=O)C(C)C(=O)NCc2ccc(Cl)cc2Cl)B(O)O)cc1` (stereo partly drawn) [Example 59, ((1R)-1-(3-((2,4-dichlorobenzyl)amino)-2-methyl-3-oxopropionamido)-2-(p-tolyl)ethyl)boric acid], the IC50 in assay [1] and in assay [2] was at most 50 nM throughout.

In the case of `COc1cccc(CCNC(=O)C(C)C(=O)N[C@@H](Cc2coc3ccccc23)B(O)O)c1` (stereo partly drawn) [Example 63, ((1R)-2-(benzofuran-3-yl)-1-(3-((3-methoxyphenylethyl)amino)-2-methyl-3-oxopropionamido)ethyl)boric acid], the IC50 in assay [1] and in assay [2] was at most 50 nM in each case.
